Literature values as cited in patent US20150104511A1, “Pharmaceutical Antiretroviral Combinations Comprising Lamivudine, Festinavir and Nevirapine” (Cipla Limited, priority 2012, published 2015).

Experiments:
mtDNA pol γ = target: T1, mtDNA pol γ (Homo sapiens, UniProt P54098); settings: compared to d4T-triphosphate
T1 sequence (P54098 1-1239): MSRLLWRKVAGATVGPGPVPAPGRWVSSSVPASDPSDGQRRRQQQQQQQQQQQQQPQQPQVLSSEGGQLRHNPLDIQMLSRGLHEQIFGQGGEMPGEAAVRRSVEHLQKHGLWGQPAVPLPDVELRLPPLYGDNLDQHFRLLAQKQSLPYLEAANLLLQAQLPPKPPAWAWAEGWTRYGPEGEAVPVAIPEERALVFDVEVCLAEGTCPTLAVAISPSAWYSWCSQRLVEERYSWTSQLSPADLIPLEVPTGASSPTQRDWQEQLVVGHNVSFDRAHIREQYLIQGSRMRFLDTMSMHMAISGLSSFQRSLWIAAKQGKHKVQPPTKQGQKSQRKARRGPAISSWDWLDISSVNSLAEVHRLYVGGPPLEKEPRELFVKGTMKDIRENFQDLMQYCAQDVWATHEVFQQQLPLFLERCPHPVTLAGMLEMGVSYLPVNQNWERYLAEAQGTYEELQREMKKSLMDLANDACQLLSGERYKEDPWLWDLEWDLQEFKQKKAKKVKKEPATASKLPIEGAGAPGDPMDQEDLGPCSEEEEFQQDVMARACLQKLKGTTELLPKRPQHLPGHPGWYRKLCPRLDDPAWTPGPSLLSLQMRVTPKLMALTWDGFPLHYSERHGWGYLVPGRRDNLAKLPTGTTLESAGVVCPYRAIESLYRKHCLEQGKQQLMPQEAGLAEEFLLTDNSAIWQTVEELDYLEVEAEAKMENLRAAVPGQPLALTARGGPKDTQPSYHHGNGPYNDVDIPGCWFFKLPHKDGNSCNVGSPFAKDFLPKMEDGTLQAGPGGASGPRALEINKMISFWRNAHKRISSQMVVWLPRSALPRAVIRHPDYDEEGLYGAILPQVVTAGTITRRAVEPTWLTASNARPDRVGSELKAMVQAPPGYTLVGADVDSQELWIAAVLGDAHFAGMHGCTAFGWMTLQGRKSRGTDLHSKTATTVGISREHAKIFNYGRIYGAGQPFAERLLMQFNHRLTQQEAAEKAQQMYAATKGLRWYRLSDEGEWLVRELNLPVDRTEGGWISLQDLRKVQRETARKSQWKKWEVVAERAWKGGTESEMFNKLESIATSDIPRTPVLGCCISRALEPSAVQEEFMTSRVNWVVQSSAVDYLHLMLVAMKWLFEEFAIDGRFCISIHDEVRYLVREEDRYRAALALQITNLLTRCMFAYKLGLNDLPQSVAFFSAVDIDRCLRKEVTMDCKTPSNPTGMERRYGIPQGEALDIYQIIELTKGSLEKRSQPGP

[1] = target: RT (Reverse Transcriptase) (Human immunodeficiency virus type 1 group M subtype B, UniProt P04585); settings: compared to d4T-triphosphate

SMILES	interactions with mtDNA pol γ (mtDNA pol γ)	increase in affinity to RT (Reverse Transcriptase) [1]	in vitro toxicity, including effects on mtDNA (mtDNA; as compared to stavudine (d4T))	cellular and mitochondrial toxicity (mtDNA; compared with stavudine (d4T))	persistence of anti-HIV activity after drug removal (HIV; compared with the other thymidine analogs)	improved potency as compared to stavudine (d4T) (HIV; relative to stavudine (d4T))
C#C[C@@]1(COP(=O)(O)OP(=O)(O)OP(=O)(O)O)C=C[C@H](n2cc(C)c(=O)[nH]c2=O)O1 [4′-Ed4T triphosphate]	reduces the interactions with mtDNA pol γ	approximately 5 fold	–	–	–	–
C#C[C@@]1(CO)C=C[C@H](n2cc(C)c(=O)[nH]c2=O)O1 [Festinavir, 2′,3′-didehydro-3′-deoxy-4′-ethynylthymidine]	–	–	reduced in vitro toxicity	lower cellular and mitochondrial toxicity	more persistent anti-HIV activity after drug removal	5-10 fold
